Assays:
Assay in all cases: Microbiological challenge testing in BPW broth, graded subculture counts
Format in all cases: cell-based
[1] = system: Aspergillus niger Wild type; conditions: A. niger
Experimental: (§1) The microorganisms in the table below were used in challenge tests. They were either ATCC (American Type Culture Collection) or “wild type” as indicated. Wild type organisms were problematic organisms previously isolated from chemical products.
(§2) All of the microorganisms were grown in Tryptose Soy Broth (TSB), DIFCO™ available from Becton, Dickinson and Company, containing 1% dextrose. Candida albicans and Aspergillus niger, were incubated at 22° C.+/−2° C. for at least 96 hours. All bacteria were incubated at 35° C.+/−2° C. in a humidified incubator for at least 96 hours.
Candida albicans and Aspergillus niger were also grown on Sabouraud Dextrose Agar (SABD) at 22° C. for 7 to 14 days or until full sporulation was achieved.
(§3) The following procedure was followed to determine the amount of each challenge material (inoculum broth) needed to produce a 10^8 CFU/mL challenge, which is equivalent to a final test-sample microbial concentration of 10^5 to 10^6 CFU/mL (CFU=colony forming units).
(§4) Using a sterile pipette, 1 mL of the growth from each TSB culture was transferred into tubes of 9 mL buffered water (pH 7.2 phosphate buffer) and mixed thoroughly. This was repeated to make serial 1:10 dilutions. Then, 0.1 mL of each sample and dilution was inoculated onto agar plates to produce the equivalent of a further 1:10 dilution. (C. albicans and A. niger were inoculated onto SABD and bacteria were inoculated onto Plate Count Agar (PCA), DIFCO™ available from Becton, Dickinson and Company.) (The normal volume plated for most samples was 0.1 mL. Some samples that could be very low in micro-organisms (high dilutions) were plated using 0.5 mL of inoculum, in order to produce reproducible counts.) The samples were distributed on the plates using the spread-plate technique. The spread-plate technique is carried out by spreading the sample over the entire plate surface using a sterile spreading rod while rotating the plate with a rotary auto-plater. After the inoculum was absorbed completely by the agar, each plate was inverted and incubated (fungi at 22° C.+/−2° C. and bacteria at 35° C.+/−2° C.).
(§5) After incubation for at least 48 hours, colonies that had developed on the agar plates were counted (CFU) and recorded with the corresponding dilution. If counting had to be delayed temporarily, plates were refrigerated, preferably no more than 24 hours, until they could be counted. The number of CFU/mL was determined by multiplying the plate count by the dilution factor of the plate counted.
(§6) Turbidity in Nepholemetric Turbidity Units (NTU) was measured for each serial dilution using the HF-Micro 100 Model Turbidimeter. For each microorganism, the plate counts were compared to the turbidity readings.
Aspergillus niger cultures were harvested and spores dislodged from the SABD on which they were grown by rubbing the growth gently with a sterile inoculating loop. The spores were then mixed into the broth culture that had been incubated with a sterile magnetic stir bar to reduce pellicle formation. The spore-culture mixture was filtered repeatedly through sterile, nonabsorbent cotton and harvested repeatedly, adjusting vegetative cells and spores to a level of 1.0×10^8. A hemocytometer was used to verify the final challenge concentration.
(§7) Control substrates (“broth alone”) were prepared for each microorganism separately in triplicate by adding 13.5 mL of Buffered Peptone Water broth (BPW) containing 1% dextrose to each 20-mL glass tube, then adding 1.5 mL challenge material to produce a final concentration at time zero of 10^5 to 10^6 CFU/mL and a total volume of 15 mL.

Aeromonas sp. Wild type = system: Aeromonas sp. Wild type
Experimental: as §1, §2, §3, §4, §5, §6, §7
(§8) Test sample substrates were prepared containing each test material listed below at the concentrations shown for challenge testing with each microorganism separately. Sample substrates were prepared in triplicate, except the substrates containing butoxyethanol which were prepared in duplicate. Substrates were prepared by adding BPW containing 1% dextrose to each 20-mL glass tube, then adding the test material in the amount appropriate to achieve the desired weight/volume percent and to achieve a total volume of BPW plus dextrose plus test material of 13.5 mL. Then 1.5 mL challenge material was added to produce a final concentration at time zero of 10^5 to 10^6 CFU/mL and a total test sample substrate volume of 15 mL.

[2] = system: Escherichia coli ATCC 25922; conditions: E. Coli
Experimental: as §1, §2, §3, §4, §5, §6, §7, §8

[3] = system: Burkholderia cepacia Wild type; conditions: B. cepacia
Experimental: as §1, §2, §3, §4, §5, §6, §7, §8

[4] = system: Streptococcus mutans ATCC 35668
Experimental: as §1, §2, §3, §4, §5, §6, §7, §8

[5] = system: Staphylococcus aureus ATCC 25923; conditions: S. aureus
Experimental: as §1, §2, §3, §4, §5, §6, §7, §8

## CCCCOCCO [EB, 2-butoxyethanol]
[1]; 2.5% (wt/vol), 3 day
  Grade: 4
[1]; 2.5% (wt/vol), 13 day
  Grade: 4
[1]; 2.5% (wt/vol), 30 day
  Grade: 4
[1]; 5.0% (wt/vol), 3 day
  Grade: 2.5
[1]; 5.0% (wt/vol), 13 day
  Grade: 0
[1]; 5.0% (wt/vol), 30 day
  Grade: 0
Aeromonas sp. Wild type; 2.5% weight/volume
  Aeromonas sp growth grade, 3 day: 4 (1000 to 10,000 colonies countable (thus 10,000 CFU/mL to 100,000 CFU/mL))
  Aeromonas sp growth grade, 14 day: 4 (1000 to 10,000 colonies countable (thus 10,000 CFU/mL to 100,000 CFU/mL))
  Aeromonas sp growth grade, 30 day: 4 (1000 to 10,000 colonies countable (thus 10,000 CFU/mL to 100,000 CFU/mL))
Aeromonas sp. Wild type; 5.0% weight/volume
  Aeromonas sp growth grade, 3 day: 1 (0 to 51 colonies counted (thus 10 to 510 CFU/mL based on 0.1-mL sample))
  Aeromonas sp growth grade, 14 day: 0
  Aeromonas sp growth grade, 30 day: 0
[2]; 2.5% (wt/vol), 3 day
  Grade: 4 (1000 to 10,000 colonies countable (thus 10,000 CFU/mL to 100,000 CFU/mL))
[2]; 2.5% (wt/vol), 14 day
  Grade: 4 (1000 to 10,000 colonies countable (thus 10,000 CFU/mL to 100,000 CFU/mL))
[2]; 2.5% (wt/vol), 30 day
  Grade: 4 (1000 to 10,000 colonies countable (thus 10,000 CFU/mL to 100,000 CFU/mL))
[2]; 5.0% (wt/vol), 3 day
  Grade: 1 (0 to 51 colonies counted (thus 10 to 510 CFU/mL based on 0.1-mL sample))
[2]; 5.0% (wt/vol), 14 day
  Grade: 0
[2]; 5.0% (wt/vol), 30 day
  Grade: 0
[3]; 2.5% (wt/vol), 3 day
  Grade: 4 (1000 to 10,000 colonies countable (thus 10,000 CFU/mL to 100,000 CFU/mL))
[3]; 2.5% (wt/vol), 14 day
  Grade: 4 (1000 to 10,000 colonies countable (thus 10,000 CFU/mL to 100,000 CFU/mL))
[3]; 2.5% (wt/vol), 30 day
  Grade: 4 (1000 to 10,000 colonies countable (thus 10,000 CFU/mL to 100,000 CFU/mL))
[3]; 5.0% (wt/vol), 3 day
  Grade: 0
[3]; 5.0% (wt/vol), 14 day
  Grade: 0
[3]; 5.0% (wt/vol), 30 day
  Grade: 0
[4]; 2.5% weight/volume
  S. mutans growth grade, 3 day: 4 (1000 to 10,000 colonies countable (thus 10,000 CFU/mL to 100,000 CFU/mL))
  S. mutans growth grade, 13 day: 4 (1000 to 10,000 colonies countable (thus 10,000 CFU/mL to 100,000 CFU/mL))
  S. mutans growth grade, 30 day: 4 (1000 to 10,000 colonies countable (thus 10,000 CFU/mL to 100,000 CFU/mL))
[4]; 5.0% weight/volume
  S. mutans growth grade, 3 day: 0
  S. mutans growth grade, 13 day: 0
  S. mutans growth grade, 30 day: 0
[5]; 2.5% (wt/vol), 3 day
  Grade: 4 (1000 to 10,000 colonies countable (thus 10,000 CFU/mL to 100,000 CFU/mL))
[5]; 2.5% (wt/vol), 14 day
  Grade: 4 (1000 to 10,000 colonies countable (thus 10,000 CFU/mL to 100,000 CFU/mL))
[5]; 2.5% (wt/vol), 30 day
  Grade: 4 (1000 to 10,000 colonies countable (thus 10,000 CFU/mL to 100,000 CFU/mL))
[5]; 5.0% (wt/vol), 3 day
  Grade: 2 (52 to 100 colonies counted (thus 520 to 1000 CFU/mL))
[5]; 5.0% (wt/vol), 14 day
  Grade: 0
[5]; 5.0% (wt/vol), 30 day
  Grade: 0

— patent publication US20100160454A1, “ANTIMICROBIAL AGENTS, COMPOSITIONS AND PRODUCTS CONTAINING THE SAME, AND METHODS OF USING THE COMPOSITIONS AND PRODUCTS” (Eastman Chemical Company, priority 2008, published 2010)
